# Test results published in publication PMC5342230, “ITC-derived binding affinity may be biased due to titrant (nano)-aggregation. Binding of halogenated benzotriazoles to the catalytic domain of human protein kinase CK2” (PLoS ONE, 2017).
# Where “and” joins values, the source holds several entries; their conditions need not be identical. Equal entries are not always repeated. Marks after values point to notes of the source that are not given here.
# Columns and labels:
# [1] = molecular target: T1, catalytic subunit of human protein kinase CK2 (hCK2α) (Homo sapiens, UniProt P68400); test: Microscale Thermophoresis (MST), global fit of two independent binding sites; conditions: for Kd: global fit of 6 pseudo-titrations
# T1 construct: made in house
# Experimental: For MST experiments the protein sample additionally contained 5 mM β-mercaptoethanol to prevent sticking of protein to capillaries.
# (§1) It should be stressed that the solvent composition of protein and ligand samples were always identical, so that the protein and ligand concentrations were the only variable factors.
# The concentration of the labeled protein was kept constant at ~100 nM, while the ligand to protein concentration ratio was in the range of 0.01 to 10^5 nM. The samples were loaded into K002 Monolith™ NT.115 Standard Treated Capillaries, which after 10 min incubation time were analyzed using the Monolith NT.115 (NanoTemper Technologies). […] The numerical model was based on the cubic equation describing the concentration-dependent equilibrium of the apo form of the protein, free ligand, and their 1:1 and 1:2 complexes K1⋅K2⋅[L]^3+(K1+K1⋅K2⋅(2⋅P0-L0))⋅[L]^2+(1+K1⋅(P0-L0))⋅[L]=L0 (1) where P0 and L0 are the total concentrations of the protein and ligand, respectively; K1 and K2 are the […] for 1:1 and 1:2 complexes; and [L] is the concentration of the free ligand. The above equation can be resolved by roots against [L]
# Concentrations of 1:1 and 1:2 complexes equal K1∙[P]∙[L] and K1∙K2∙[P]∙[L]^2, respectively. The model was implemented in Origin 9.0 package (www.originlab.com). Dissociation constants, K1 and K2, were estimated globally for a series of 6 MST pseudo-titration experiments, while contributions of three protein forms (i.e. apo, and 1:1 and 1:2 complexes) to the observed MST signal were fitted individually for each experiment (S1 Fig).
# [2] = molecular target: T1, catalytic subunit of human protein kinase CK2 (hCK2α); test: ITC (hCK2α titrated with the ligand), one type of binding sites; conditions: ligand as titrant, 25°C
# Experimental: as §1
# (§2) All ITC measurements were carried out at 25°C with the Nano ITC calorimeter (TA Instruments), using 250 rpm stirring and 1000 s delay between succeeding injections to the sample cell (950 μl). The first “technical” injection of a reduced volume (4–5 μl) was followed by 12 injections of 20 μl, however 16x15 μl or 10x25 μl schemes were occasionally used. The concentration of reagents varied depending on their affinities and experiment type. Thus 20–200 μM ligand solution was used as the titrant, but only 4–10 μM when placed in the sample cell. Accordingly, the sample cell was filled with 4–30 μM hCK2α solution, while 20–40 μM protein solution was placed in the syringe. For each ligand at least two titration experiments were done with different reagent concentrations, and occasionally with optimized injection volume. […] The resulting data were processed with the standard NanoAnalyze software package (version 3.5.0), assuming the model of one type of binding sites of the apparent stoichiometry close to 1:1. The automatically adjusted integration regions were used to minimize the impact of researcher’s arbitrary decision. The uncertainty of all determined values was estimated as the half-width of 67% confidence interval.
# [3] = molecular target: T1, catalytic subunit of human protein kinase CK2 (hCK2α); test: Reverse ITC (ligand titrated with hCK2α), one type of binding sites; conditions: protein as titrant, 25°C
# Experimental: as §1, §2
# [4] = molecular target: T1, catalytic subunit of human protein kinase CK2 (hCK2α); test: Reverse ITC with MST-derived Kd (two types of binding sites, Kd constrained); conditions: for ΔG1 / ΔG2 / Kd: constrained based on the MST-derived binding affinities; for ΔH1 / ΔS1 / ΔH2 / ΔS2: reverse ITC, two-site model, Kd from MST; for ΔH1 / ΔS1: strong site; for ΔH2 / ΔS2: weak site
# Experimental: All ITC measurements were carried out at 25°C with the Nano ITC calorimeter (TA Instruments), using 250 rpm stirring and 1000 s delay between succeeding injections to the sample cell (950 μl). The first “technical” injection of a reduced volume (4–5 μl) was followed by 12 injections of 20 μl, however 16x15 μl or 10x25 μl schemes were occasionally used. The concentration of reagents varied depending on their affinities and experiment type. Thus 20–200 μM ligand solution was used as the titrant, but only 4–10 μM when placed in the sample cell. Accordingly, the sample cell was filled with 4–30 μM hCK2α solution, while 20–40 μM protein solution was placed in the syringe. For each ligand at least two titration experiments were done with different reagent concentrations, and occasionally with optimized injection volume. […] The automatically adjusted integration regions were used to minimize the impact of researcher’s arbitrary decision. The uncertainty of all determined values was estimated as the half-width of 67% confidence interval.
# [5] = Dynamic light scattering (DLS/SLS) of ligand nano-aggregates; format: physicochemical; conditions: for formation of nano-aggregates (DLS autocorrelation function): 1 mM ligand, 25°C, buffer with 2% DMSO
# Experimental: All DLS experiments were carried out at 25°C with the DynaPro NanoStar 192-DPN apparatus (Wyatt Technology) equipped with 661 nm laser. The autocorrelation function for the light scattered by 5-BrBt or TBBt buffered solution placed in Eppendorf disposable cuvettes (50–2000 μl) was measured at various solute concentrations in the range of 0.5 μs– 0.1 s, and further decomposed to the distribution of particle size (ranging from 0.18 nm to 2.5 μm) using Dynamics software (Wyatt Technology, ver. 7.0.2.7). Solutions with 2% (v/v) DMSO content were prepared in 25 mM Tris-HCl (pH 8, 0.5 M NaCl) filtered with 0.22 μm pore size syringe filter. All samples were centrifuged (9000 g) for 3 minutes immediately before the experiment. For each sample a series of at least 30 repetitions, 10 s each, has been collected, and those with abnormally high SOS function and/or with highly fluctuating SLS signal were removed from the analysis. All remaining data have been averaged to obtain the autocorrelation function (ACF) of a reasonable quality. This procedure was found indispensable for diluted TBBt solutions, in which large aggregates have rarely scattered light crossing the laser beam. Consequently, extreme fluctuations of ACF precluded direct analysis of the time-evolution of TBBt aggregates. However, the raw SLS signal was found applicable to estimate the rate of aggregate disintegration.
# [6] = UV-VIS spectroscopy, deviation from Lambert-Beer law (ligand aggregation); format: physicochemical
# Experimental: The absorption spectra (200–500 nm) were collected at 25°C using Varian Cary 50 UV-VIS spectrophotometer equipped with 1 cm quartz cells. The initial buffer solution was manually titrated with the 851 μM TBBt solution to record spectra for increasing solute concentration. For each sample UV-VIS spectrum was collected four times, every 20 s including 15 s acquisition time, starting 5 s after solute dilution. The changes in the absorption spectrum of 40 μM TBBt sample, prepared just before the experiment, were additionally tracked for an hour to follow possible disintegration of soluble aggregates.
# [7] = parameters: method as in http://www.sigmaaldrich.com/catalog/product/sigma/t0826; conditions: ref http://www.sigmaaldrich.com/catalog/product/sigma/t0826; cited from earlier work
# [8] = molecular target: T1, catalytic subunit of human protein kinase CK2 (hCK2α); test: Reverse ITC (ligand titrated with hCK2α), one type of binding sites; conditions: strong site
# [9] = strong site, read-out: Kd1 (strong binding site)
# [10] = weak site, read-out: Kd2 (weak binding site)
# T1 sequence (P68400 whole entry): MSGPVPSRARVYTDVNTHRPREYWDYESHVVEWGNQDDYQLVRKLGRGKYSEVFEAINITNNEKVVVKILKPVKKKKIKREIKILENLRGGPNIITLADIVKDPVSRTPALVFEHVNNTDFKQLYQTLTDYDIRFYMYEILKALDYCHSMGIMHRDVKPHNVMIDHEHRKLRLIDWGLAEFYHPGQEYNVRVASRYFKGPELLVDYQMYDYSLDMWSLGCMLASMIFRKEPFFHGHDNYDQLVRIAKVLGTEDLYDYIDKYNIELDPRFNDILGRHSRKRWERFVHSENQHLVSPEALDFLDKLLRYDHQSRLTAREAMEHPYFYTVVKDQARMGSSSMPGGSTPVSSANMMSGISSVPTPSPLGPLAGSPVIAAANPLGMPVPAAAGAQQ
ΔG1 ([1]; strong site),"Kd [1, 9]",ΔG2 ([1]; weak site),"Kd [1, 10]",Kd [2],ΔG [2],ΔH [2],ΔS [2],Kd [3],ΔG [3],ΔH [3],ΔS [3],ΔG1 [4],ΔG2 [4],Kd ([4]; read-out: Kd1),Kd ([4]; read-out: Kd2),ΔH1 [4],ΔS1 [4],ΔH2 [4],ΔS2 [4],Structure (SMILES),further results
-40.5 ± 0.6 kJ/mol,81 ± 22 nM,-30.6 ± 0.3 kJ/mol,4400 ± 500 nM,1170 ± 270 nM,-33.9 ± 0.5 kJ/mol,-63 ± 2 kJ/mol,-97 ± 8 J/mol/K,46 ± 10 nM,-41.9 ± 0.5 kJ/mol,-71 ± 2 kJ/mol,-98 ± 6 J/mol/K,-40.5 ^x kJ/mol,-30.6 ^x kJ/mol,81 nM,4400 nM,-78 ± 13 kJ/mol,-126 ± 43 J/mol/K,11 ± 34 kJ/mol,140 ± 114 J/mol/K,"Brc1cc2nn[nH]c2cc1Br [5,6-Br2Bt, 5,6-dibromobenzotriazole]",–
-37.7 ± 0.3 kJ/mol,246 ± 36 nM,-29.7 ± 0.4 kJ/mol,6300 ± 1000 nM,310 ± 89 nM,-37.1 ± 0.6 kJ/mol,-68 ± 3 kJ/mol,-102 ± 9 J/mol/K,294 ± 73 nM,-37.3 ± 0.5 kJ/mol,-70 ± 3 kJ/mol,-110 ± 10 J/mol/K,-37.7 ^x kJ/mol,-29.7 ^x kJ/mol,246 nM,6300 nM,-73 ± 5 kJ/mol,-118 ± 15 J/mol/K,7 ± 23 kJ/mol,123 ± 77 J/mol/K,Brc1ccc2nn[nH]c2c1 [5-BrBt],formation of nano-aggregates (DLS autocorrelation function) [5]: no such effect was observed; plot of concentration versus absorbance (Lambert-Beer law) ([6]; control experiment): remained linear
–,–,–,–,–,–,–,–,–,–,–,–,–,–,–,–,–,–,–,–,"Brc1c(Br)c(Br)c2[nH]nnc2c1Br [TBBt, tetrabromobenzotriazole]","formation of nano-aggregates (DLS autocorrelation function) [5]: forms nano-aggregates; radius of nano-aggregates ([5]; DLS, 1 mM down to 20 μM): ~ 100 nm and 100 nm; τ, decay of the aggregate population (raw SLS signal) ([5]; after rapid dilution of 500 μM sample): 460 ± 40 s; τ, increase of population of the monomeric form (absorption at 291 nm) ([6]; 40 μM solution, tracked for an hour): 670 ± 40 s; upper limit of ligand concentration at which monomeric form predominates ([6]; UV absorbance, deviation from Lambert-Beer law): 20 to 30 µM; solubility in pure DMSO [7]: 65 mM"
-40.4 ± 0.7 kJ/mol,83 ± 29 nM,-30.5 ± 0.7 kJ/mol,4600 ± 1400 nM,990 ± 270 nM,-34.3 ± 0.6 kJ/mol,-35 ± 2 kJ/mol,-2 ± 5 J/mol/K,42 ± 17 nM,-42.1 ± 0.8 kJ/mol,-40 ± 1 kJ/mol,9 ± 4 J/mol/K,-40.4 ^x kJ/mol,-30.5 ^x kJ/mol,83 nM,4600 nM,-44 ± 2 kJ/mol,-12 ± 9 J/mol/K,2 ± 9 kJ/mol,109 ± 31 J/mol/K,"Brc1cc2[nH]nnc2c(Br)c1Br [4,5,6-Br3Bt, 4,5,6-tribromobenzotriazole]",entropic contribution to binding [8]: favorable entropic contribution
